What is called IC50 is the concentration at which inhibition is half-maximal.

Counter-ions that a name gives are not always drawn.

These results are taken from patent US8604024B2, “Compounds for the reduction of beta-amyloid production” (Bristol-Myers Squibb Company, priority 2011, dated 2013).

The subject of one assay is Aβ1-42 production in H4 cells stably transfected with APP751 containing the Swedish mutation. In words: Cellular assay for inhibition of Aβ1-42 production (H4 APP751 SWE clone 8.20). The class given is cell-based. As to conditions: 19 h, H4 APP751 SWE clone 8.20 cells, 19 h incubation; read-out: Aβ42 cellular IC50. As to the method: Cellular Assays for Inhibition of Aβ1-40 and Aβ1-42 Production
H4 cells stably transfected with APP751 containing the Swedish mutation (H4 APP751 SWE clone 8.20, developed at BMS) were maintained in log phase through twice weekly passage at a 1:20 split. […] Following incubation for 19 h in 5% CO2 at 37° C., plates were briefly centrifuged (1000 rpm, 5 min). A 10 μl aliquot from each well was transferred to a second assay plate (Costar 3709) for Aβ40 measurements. Antibody cocktails were freshly prepared by dilution into 40 mM Tris-HCl (pH 7.4) with 0.2% BSA and added to assay plates. For Aβ42 measurements, antibodies specific for the Aβ42 neoepitope (565, developed at BMS; conjugated to the Wallac reagent (Perkin Elmer)) and the N-terminal sequence of Aβ peptide (26D6, developed at SIBIA; conjugated to APC (Perkin Elmer)) were mixed and 20 μl of the mixture was added to each well of the incubated cell plate yielding a final concentration of 0.8 ng/well 565 and 75 ng/well 26D6. For the Aβ40 measurements, antibodies specific for the Aβ40 neoepitope (TSD, developed at BMS; conjugated to the Wallac reagent (Perkin Elmer)) and 26D6 as described above were mixed and 20 μl of the mixture was added to the 10 μl aliquots which had been removed previously from the cell plate yielding a final concentration of 1.6 ng/well TSD and 17.5 ng/well 26D6. Assay plates containing antibodies were sealed with aluminum foil and incubated overnight at 4° C. Signal was determined using a Viewlux counter (Perkin Elmer) and IC50 values determined using curve fitting in CurveMaster (Excel Fit based).
Consider `Cc1ncc(-c2ccc3c(c2)[C@@]2(C)N=C(N)SC[C@H]2CCO3)s1` (relative stereo) [Example 26, rel-(4aS,11bS)-11b-Methyl-10-(2-methylthiazol-5-yl)-4a,5,6,11b-tetrahydro-4H-benzo[2,3]oxepino[4,5-d][1,3]thiazin-2-amine, 2,2,2-trifluoroacetate salt], for which the IC50 was determined as 8500 nM.
Take `CC#Cc1cncc(-c2ccc3c(c2)[C@@]2(C)N=C(N)SC[C@H]2CC3)c1` (relative stereo) [Example 21, rel-(4aS,10bS)-10b-methyl-9-(5-(prop-1-yn-1-yl)pyridin-3-yl)-4,5,6,10b-tetrahydro-4H-naphtho[1,2-d][1,3]thiazin-2-amine, bis(2,2,2-trifluoroacetate)]: the 50% inhibitory concentration (IC50) is 1800 nM.
As to `C[C@]12N=C(N)SC[C@H]1CCCc1ccc(-c3cncnc3)cc12` (relative stereo) [Example 2, rel-(4aS,11bS)-11b-Methyl-10-pyrimidin-5-yl-4,4a,5,6,7,11b-hexahydro-3-thia-1-aza-dibenzo[a,c]cyclohepten-2-ylamine, bis(2,2,2-trifluoroacetate)], the IC50 was found to be 3400 nM.
Still for that read-out and setting: next, `CC#Cc1cncc(-c2ccc3c(c2)[C@@]2(C)N=C(N)SC[C@H]2CCO3)c1` (relative stereo) [Example 22, rel-(4aS,11bS)-11b-methyl-10-(5-(prop-1-yn-1-yl)pyridin-3-yl)-4a,5,6,11b-tetrahydro-4H-benzo[2,3]oxepino[4,5-d][1,3]thiazin-2-amine, bis(2,2,2-trifluoroacetate)]: 960 nM.
Still for that read-out and setting: to `C[C@]12N=C(N)SC[C@H]1CCCc1ccc(-c3cncc(Cl)c3)cc12` (relative stereo) [Example 13, rel-(4aS,11bS)-10-(5-Chloropyridin-3-yl)-11b-methyl-4,4a,5,6,7,11b-hexahydrobenzo[6,7]cyclohepta[1,2-d][1,3]thiazin-2-amine, bis(2,2,2-trifluoroacetate)] belongs 3100 nM.
For the compound `C[C@@]12N=C(N)SC[C@@H]1CCCc1ccc(NC(=O)c3ncc(Cl)cc3Cl)cc12` [Example 45b, N-((4aR,11bR)-2-Amino-11b-methyl-4,4a,5,6,7,11b-hexahydrobenzo[6,7]cyclohepta[1,2-d][1,3]thiazin-10-yl)-3,5-dichloropicolinamide], the IC50 was 920 nM.
Still for that read-out and setting: to `NC1=N[C@H]2c3cc(-c4cncnc4)ccc3CCC[C@H]2CS1` [Example 1b, (4aR,11bR)-10-Pyrimidin-5-yl-4,4a,5,6,7,11b-hexahydro-3-thia-1-aza-dibenzo[a,c]cyclohepten-2-ylamine] belongs 28000 nM.
The same measure, in the same setting: to `C[C@]12N=C(N)SC[C@H]1CCc1ccc(Br)cc12` (relative stereo) [Example 10, rel-(4aS,10bS)-9-Bromo-10b-methyl-4a,5,6,10b-tetrahydro-4H-naphtho[1,2-d][1,3]thiazin-2-amine] belongs 13000 nM.
For `C[C@]12N=C(N)SC[C@H]1CCc1ccc(NC(=O)c3ccc(Cl)cn3)cc12` [Example 7b, N-((4aS,10bS)-2-Amino-10b-methyl-4a,5,6,10b-tetrahydro-4H-naphtho[1,2-d][1,3]thiazin-9-yl)-5-chloropicolinamide], the half-inhibitory concentration (IC50) came to 1200 nM.
Same read-out and setting: next, `NC1=N[C@@H]2c3cc(-c4cncnc4)cc(F)c3OCC[C@@H]2CS1` (relative stereo) [Example 4, rel-(4aS,11bS)-8-fluoro-10-pyrimidin-5-yl-4a,5,6,11b-tetrahydro-4H-7-oxa-3-thia-1-aza-dibenzo[a,c]cyclohepten-2-ylamine]: above 30000 nM.
As for `C[C@]12N=C(N)SC[C@H]1CCCc1ccc(Br)cc12` (relative stereo) [Example 16], the IC50 was found to be 2500 nM.
Still for that read-out and setting: to `C[C@]12N=C(N)SC[C@H]1CCc1ccc(-c3cncc(Cl)c3)cc12` (relative stereo) [Example 6, rel-(4aS,10bS)-9-(5-Chloropyridin-3-yl)-10b-methyl-4a,5,6,10b-tetrahydro-4H-naphtho[1,2-d][1,3]thiazin-2-amine bis(2,2,2-trifluoroacetate)] belongs 2600 nM; to `C[C@]12N=C(N)SC[C@H]1CCOc1ccc(Nc3ncnc4ccccc34)cc12` (relative stereo) [Example 40, rel-(4aS,11bS)-11b-Methyl-N10-(quinazolin-4-yl)-4a,5,6,11b-tetrahydro-4H-benzo[2,3]oxepino[4,5-d][1,3]thiazine-2,10-diamine, bis(2,2,2-trifluoroacetate)], 15000 nM; to `C[C@]12N=C(N)SC[C@H]1CCCc1ccc(NC(=O)c3ccc(Cl)cn3)cc12` [Example 3a, 5-Chloro-pyridine-2-carboxylic acid ((4aS,11bS)-2-amino-11b-methyl-4,4a,5,6,7,11b-hexahydro-3-thia-1-aza-dibenzo[a,c]cyclohepten-10-yl)-amide], 8.8 nM.
`Cc1ncc(-c2ccc3c(c2)[C@@]2(C)N=C(N)SC[C@H]2CCO3)s1` [Example 26b, (4aS,11bS)-11b-Methyl-10-(2-methylthiazol-5-yl)-4a,5,6,11b-tetrahydro-4H-benzo[2,3]oxepino[4,5-d][1,3]thiazin-2-amine]: the IC50 came to 3200 nM.
Same read-out and setting: next, `C[C@]12N=C(N)SC[C@H]1CCOc1ccc(NC(=O)c3ccc(C#N)cn3)cc12` (relative stereo) [Example 35, rel-N-((4aS,11bS)-2-Amino-11b-methyl-4a,5,6,11b-tetrahydro-4H-benzo[2,3]oxepino[4,5-d][1,3]thiazin-10-yl)-5-cyanopicolinamide, 2,2,2-trifluoroacetate salt]: 28 nM; `COc1cncc(-c2ccc3c(c2)[C@@]2(C)N=C(N)SC[C@H]2CCC3)c1` (relative stereo) [Example 11, rel-(4aS,11bS)-10-(5-methoxypyridin-3-yl)-11b-methyl-4,4a,5,6,7,11b-hexahydrobenzo[6,7]cyclohepta[1,2-d][1,3]thiazin-2-amine, bis(2,2,2-trifluoroacetate)]: 3400 nM; `C[C@]12N=C(N)SC[C@H]1CCOc1ccc(Nc3nccc4ccccc34)cc12` (relative stereo) [Example 41, rel-(4aS,11bS)—N10-(Isoquinolin-1-yl)-11b-methyl-4a,5,6,11b-tetrahydro-4H-benzo[2,3]oxepino[4,5-d][1,3]thiazine-2,10-diamine, bis(2,2,2-trifluoroacetate)]: 16000 nM.
Still for that read-out and setting: next, `C[C@@]12N=C(N)SC[C@@H]1CCOc1ccc(NC(=O)c3ccc(F)cn3)cc12` [Example 36b, N-((4aR,11bR)-2-Amino-11b-methyl-4a,5,6,11b-tetrahydro-4H-benzo[2,3]oxepino[4,5-d][1,3]thiazin-10-yl)-5-fluoropicolinamide]: 10000 nM.
On the same count and under the same terms, next, `C[C@]12N=C(N)SC[C@H]1CCCc1ccc(-c3cncc(F)c3)cc12` (relative stereo) [Example 14, rel-(4aS,11bS)-10-(5-fluoropyridin-3-yl)-11b-methyl-4,4a,5,6,7,11b-hexahydrobenzo[6,7]cyclohepta[1,2-d][1,3]thiazin-2-amine, bis(2,2,2-trifluoroacetate)]: 2100 nM; `C[C@]12N=C(N)SC[C@H]1CCCc1ccc(NC(=O)c3ccc(OC(F)F)cn3)cc12` [Example 46a, N-((4aS,11bS)-2-Amino-11b-methyl-4,4a,5,6,7,11b-hexahydrobenzo[6,7]cyclohepta[1,2-d][1,3]thiazin-10-yl)-5-(difluoromethoxy)picolinamide]: 27 nM; `C[C@]12N=C(N)SC[C@H]1CCc1ccc(NC(=O)c3ncc(F)cc3F)cc12` (relative stereo) [Example 8, rel-N-((4aS,10bS)-2-Amino-10b-methyl-4a,5,6,10b-tetrahydro-4H-naphtho[1,2-d][1,3]thiazin-9-yl)-3,5-difluoropicolinamide, 2,2,2-trifluoroacetate]: 3100 nM.
With `C[C@]12N=C(N)SC[C@H]1CCOc1ccc(NC(=O)c3ccc(Cl)cn3)cc12` (relative stereo) [Example 33, rel-N-((4aS,11bS)-2-amino-11b-methyl-4a,5,6,11b-tetrahydro-4H-benzo[2,3]oxepino[4,5-d][1,3]thiazin-10-yl)-5-chloropicolinamide, 2,2,2-trifluoroacetate salt], the half-inhibitory concentration (IC50) was determined as 34 nM.
`COc1ccnc(Nc2ccc3c(c2)[C@@]2(C)N=C(N)SC[C@H]2CCO3)n1` (relative stereo) [Example 42, rel-(4aS,11bS)—N10-(4-Methoxypyrimidin-2-yl)-11b-methyl-4a,5,6,11b-tetrahydro-4H-benzo[2,3]oxepino[4,5-d][1,3]thiazine-2,10-diamine, bis(2,2,2-trifluoroacetate)]: the concentration for half-maximal inhibition (IC50) was found to be 1500 nM.

The same assay, now with this note: H4 APP751 SWE clone 8.20 cells, 19 h incubation; read-out: Aβ42 cellular IC50.
Regarding `C[C@]12N=C(N)SC[C@H]1CCOc1ccc(NC(=O)c3ccc(C#N)cn3)cc12` [Example 35b, N-((4aS,11bS)-2-amino-11b-methyl-4a,5,6,11b-tetrahydro-4H-benzo[2,3]oxepino[4,5-d][1,3]thiazin-10-yl)-5-cyanopicolinamide], the IC50 amounted to 6.2 nM.
